According to ChEMBL document CHEMBL1641396, “4-Oxo-1,4-dihydropyridines as selective CB2 cannabinoid receptor ligands: structural insights into the design of a novel inverse agonist series” (J Med Chem, 2010):
pEC50, pKi: −log10 of the molar value.

How the values were obtained:
[1] = molecular target: Cannabinoid receptor 1 (Homo sapiens, UniProt P21554); assay: Displacement of [3H]-SR141716A from human CB1 receptor expressed in CHO cells after 1 hr; assay type: cell-based
[2] = molecular target: T1, Cannabinoid receptor 2 (Homo sapiens, UniProt P34972); assay: Agonist activity at human CB2 receptor expressed in CHO cells assessed as stimulation of [35S]-GTPgammaS binding relative to basal activity; assay type: functional, cell-based
T1 sequence (P34972 whole entry): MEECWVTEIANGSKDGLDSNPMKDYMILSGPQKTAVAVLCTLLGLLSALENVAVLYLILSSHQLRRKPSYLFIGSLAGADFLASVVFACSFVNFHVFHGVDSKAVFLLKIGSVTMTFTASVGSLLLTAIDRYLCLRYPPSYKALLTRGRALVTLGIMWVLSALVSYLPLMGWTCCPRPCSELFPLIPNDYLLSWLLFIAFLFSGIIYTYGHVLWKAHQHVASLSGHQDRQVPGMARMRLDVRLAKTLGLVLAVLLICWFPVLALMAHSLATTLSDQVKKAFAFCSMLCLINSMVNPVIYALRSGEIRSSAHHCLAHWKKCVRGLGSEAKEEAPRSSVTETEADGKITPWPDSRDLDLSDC

[3] = molecular target: T1, Cannabinoid receptor 2; assay: Displacement of [3H]-CP55940 from human CB2 receptor expressed in CHO cells after 1 hr; assay type: cell-based
[4] = molecular target: T1, Cannabinoid receptor 2; assay: Agonist activity at human CB2 receptor expressed in CHO cells assessed as stimulation of [35S]-GTPgammaS binding; assay type: functional, cell-based

Cannabinoid receptor 1, sequence (P21554 whole entry): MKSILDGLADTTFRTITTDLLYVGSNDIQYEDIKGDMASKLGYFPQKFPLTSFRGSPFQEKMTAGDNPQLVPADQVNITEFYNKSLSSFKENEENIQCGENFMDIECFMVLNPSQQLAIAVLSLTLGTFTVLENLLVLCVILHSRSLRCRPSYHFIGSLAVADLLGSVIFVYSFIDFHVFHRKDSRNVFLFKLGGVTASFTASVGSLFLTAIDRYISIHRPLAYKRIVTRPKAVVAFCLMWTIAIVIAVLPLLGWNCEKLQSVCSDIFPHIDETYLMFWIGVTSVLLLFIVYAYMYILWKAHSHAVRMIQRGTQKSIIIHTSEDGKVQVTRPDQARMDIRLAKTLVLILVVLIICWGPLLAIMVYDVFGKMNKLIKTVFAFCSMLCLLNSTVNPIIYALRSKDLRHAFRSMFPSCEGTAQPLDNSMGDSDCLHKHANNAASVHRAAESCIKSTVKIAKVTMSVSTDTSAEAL

SMILES | pKi [1] | Emax [2] | pKi [3] | pEC50 [4]
CCCCCn1cc(C(=O)NN2CCCCC2)c(=O)cc1-c1ccccc1 | < 5.52 | 48% | – | –
CCCCCn1cc(C(=O)NC2CCCCC2)c(=O)cc1C(C)(C)C | < 5.52 | – | – | –
CCCCCn1cc(C(=O)NC23CC4CC(CC(C4)C2)C3)c(=O)cc1-c1ccccc1 | 6.23 | – | – | –
CCCCCn1cc(C(=O)NC23CC4CC(CC(C4)C2)C3)c(=O)cc1-c1cccc(Cl)c1 | 7.29 | – | 8.74 | –
CCCCCn1cc(C(=O)NC23CC4CC(CC(C4)C2)C3)c(=O)cc1-c1ccc(OC)cc1 | 6.42 | – | 7.04 | –
CCCCCn1cc(C(=O)Nc2cccc(C(F)(F)F)c2)c(=O)cc1-c1ccccc1 | < 5.52 | 42% | 7.59 | 7.85
CCCCCn1cc(C(=O)NC2CCCCC2)c(=S)cc1-c1ccccc1 | < 6.00 | 45% | 7.32 | 7.57
CC(NC(=O)c1cn(-c2ccccc2)c(-c2ccccc2)cc1=O)C12CC3CC(CC(C3)C1)C2 (racemic) | < 5.52 | – | < 5.52 | –
CCCCCn1cc(C(=O)N[C@@H]2CCCc3ccccc32)c(=O)cc1-c1ccccc1 | 6.88 | 42% | – | –
CCCCCn1cc(C(=O)NC23CC4CC(CC(C4)C2)C3)c(=O)cc1C(C)(C)C | < 5.52 | 212% | – | –
CCCCCn1cc(NC(=O)OC(C)(C)C)c(=O)cc1-c1ccccc1 | < 5.52 | 26% | 6.68 | 6.79
CCCCCn1cc(C(=O)NC23CC4CC(CC(C4)C2)C3)c(=O)cc1-c1ccccc1Cl | 7.46 | – | 9.15 | –
CCCC(C)(C)c1ccc2c(c1)OC(C)(C)[C@@H]1CC=C(O)C[C@@H]21 | – | 201% | 7.69 | 6.84
CCCCCCC(C)(C)c1ccc([C@@H]2C[C@H](O)CC[C@H]2CCCO)c(O)c1 | – | 230% | – | –
CCCCCn1cc(C(=O)NC23CC4CC(CC(C4)C2)C3)c(=O)cc1-c1ccc(Cl)cc1 | < 6.00 | – | – | –
CCCCCn1cc(C(=O)NC23CC4CC(CC(C4)C2)C3)c(=O)cc1-c1ccc(C)cc1 | 6.87 | – | 7.88 | –
Cc1c(C(=O)c2cccc3ccccc23)c2cccc3c2n1[C@H](CN1CCOCC1)CO3 | – | 207% | – | –
CCCCCn1cc(C(=O)NCC23CC4CC(CC(C4)C2)C3)c(=O)cc1-c1ccccc1 | 6.20 | – | – | –
CCCCCCn1cc(C(=O)NC23CC4CC(CC(C4)C2)C3)c(=O)cc1-c1ccccc1 | 6.22 | – | – | –
CCCCCn1cc(C(=O)NC23CC4CC(CC(C4)C2)C3)c(=S)cc1-c1ccccc1 | < 6.00 | 30% | 7.73 | 7.77
CCCCCn1cc(C(=O)N[C@H]2CCCc3ccccc32)c(=O)cc1-c1ccccc1 | < 6.00 | 48% | – | –
CCn1cc(C(=O)NC(C)C23CC4CC(CC(C4)C2)C3)c(=O)cc1-c1ccccc1 (racemic) | < 5.52 | – | – | –
CCCCCn1cc(C(=O)NC2CCCCC2)c(=O)cc1-c1ccccc1 | 6.03 | 62% | – | –
CCCCCn1cc(C(=O)NC23CC4CC(CC(C4)C2)C3)c(=O)cc1C | < 5.52 | 148% | – | –
CCCCCn1cc(NC(=O)C2CCCCC2)c(=O)cc1-c1ccccc1 | < 5.52 | 43% | 7.29 | 7.60
CCCCn1cc(C(=O)NC23CC4CC(CC(C4)C2)C3)c(=O)cc1-c1ccccc1 | < 6.00 | – | – | –
CCCCCn1cc(C(=O)NC2CCCCC2)c(=O)cc1-c1ccc(Cl)cc1 | < 6.00 | 39% | – | –
CCCCCn1cc(C(=O)NC(C)C23CC4CC(CC(C4)C2)C3)c(=O)cc1-c1ccccc1 (racemic) | 6.43 | 46% | – | –
CCCCCn1cc(C(=O)Nc2cccc(C(F)(F)F)c2)c(=O)cc1-c1ccc(Cl)cc1 | < 6.00 | 42% | < 6.00 | 6.80
